Data published in publication PMC10466253, “Derivatives of 9-phosphorylated acridine as butyrylcholinesterase inhibitors with antioxidant activity and the ability to inhibit β-amyloid self-aggregation: potential therapeutic agents for Alzheimer’s disease” (Frontiers in Pharmacology, 2023).
Marks after values point to notes of the source that are not given here.

What was measured:
Porcine liver CES = assay: In vitro inhibition of CES activity (spectrophotometric, 4-NPA substrate); assay type: biochemical; conditions: compound concentration 20 µM; mean ± SEM, n = 3
Method: (§1) Enzymes, substrates, and reference compounds were from Sigma-Aldrich (St. Louis, MO, United States). […] Experimental conditions: K,Na-phosphate buffer (100 mM), 25°С, pH 7.5 for AChE and BChE and pH 8.0 for CES assay. Measurements were carried out on a BioRad Benchmark Plus microplate spectrophotometer (Hercules, CA, United States).
(§2) Test compounds were dissolved in DMSO; final concentration of solvent in the incubation mixture was 2% (v/v).

Equine serum BChE = biological target: T1, Equine serum BChE (Equus caballus, UniProt P81908); assay: In vitro inhibition of BChE activity (spectrophotometric, BTCh iodide substrate); assay type: biochemical; conditions: for Equine serum BChE, (%) inhibition: compound concentration 20 µM, mean ± SEM, n = 3; for inhibition at 20 µM: read-out: Equine serum BChE, (%) inhibition
T1 construct: Equine serum BChE, (%); purchased Sigma-Aldrich; host or cells: equine serum
T1 sequence (P81908 whole entry): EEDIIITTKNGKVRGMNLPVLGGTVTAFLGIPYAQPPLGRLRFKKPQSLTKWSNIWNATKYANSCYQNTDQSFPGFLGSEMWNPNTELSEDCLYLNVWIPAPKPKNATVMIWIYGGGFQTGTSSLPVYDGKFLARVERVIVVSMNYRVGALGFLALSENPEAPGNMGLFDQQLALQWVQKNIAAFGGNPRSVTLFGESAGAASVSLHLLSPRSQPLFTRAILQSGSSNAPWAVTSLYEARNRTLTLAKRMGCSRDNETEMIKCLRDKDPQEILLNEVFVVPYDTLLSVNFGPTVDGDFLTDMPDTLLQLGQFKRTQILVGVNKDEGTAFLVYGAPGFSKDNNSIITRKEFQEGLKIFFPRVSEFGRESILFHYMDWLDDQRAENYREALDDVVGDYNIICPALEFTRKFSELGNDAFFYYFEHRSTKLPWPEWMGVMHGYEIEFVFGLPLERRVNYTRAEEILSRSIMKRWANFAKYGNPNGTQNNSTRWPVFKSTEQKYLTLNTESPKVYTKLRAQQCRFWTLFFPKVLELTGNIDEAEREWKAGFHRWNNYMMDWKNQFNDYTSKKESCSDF
Method: as §1, §2

β-amyloid (1-42) (Aβ42) = biological target: T2, β-amyloid (1-42) (Aβ42) (Homo sapiens, UniProt P05067); assay: Inhibition of Aβ42 self-aggregation, thioflavin T fluorescence method; assay type: biochemical; conditions: Aβ42 50 µM, compound 100 µM, 24 h, 37°C; mean ± SEM, n = 3
T2 construct: purchased AnaSpec Inc
T2 sequence (P05067 672-713 limits assumed): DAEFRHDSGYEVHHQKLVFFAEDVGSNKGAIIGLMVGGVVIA
Method: Lyophilized HFIP-pretreated Aβ42 (AnaSpec Inc., 0.5 mg) was dissolved in DMSO to obtain a stable 500 μM solution. […] Myricetin and Propidium iodide in the same concentration were used as references.
Therefore, the decrease in ThT fluorescence in the presence of the studied compound correlates with its activity to inhibit the formation of amyloid aggregates.

Human erythrocyte AChE = biological target: T3, Human erythrocyte AChE (Homo sapiens, UniProt P22303); assay: In vitro inhibition of AChE activity (spectrophotometric, ATCh iodide substrate); assay type: biochemical; conditions: for inhibition at 20 µM: read-out: Human erythrocyte AChE, (%) inhibition; for Human erythrocyte AChE, (%) inhibition: compound concentration 20 µM, mean ± SEM, n = 3
T3 construct: Human erythrocyte AChE, (%); purchased Sigma-Aldrich; host or cells: human erythrocytes
T3 sequence (P22303 32-617 isoform P22303-2 limits assumed): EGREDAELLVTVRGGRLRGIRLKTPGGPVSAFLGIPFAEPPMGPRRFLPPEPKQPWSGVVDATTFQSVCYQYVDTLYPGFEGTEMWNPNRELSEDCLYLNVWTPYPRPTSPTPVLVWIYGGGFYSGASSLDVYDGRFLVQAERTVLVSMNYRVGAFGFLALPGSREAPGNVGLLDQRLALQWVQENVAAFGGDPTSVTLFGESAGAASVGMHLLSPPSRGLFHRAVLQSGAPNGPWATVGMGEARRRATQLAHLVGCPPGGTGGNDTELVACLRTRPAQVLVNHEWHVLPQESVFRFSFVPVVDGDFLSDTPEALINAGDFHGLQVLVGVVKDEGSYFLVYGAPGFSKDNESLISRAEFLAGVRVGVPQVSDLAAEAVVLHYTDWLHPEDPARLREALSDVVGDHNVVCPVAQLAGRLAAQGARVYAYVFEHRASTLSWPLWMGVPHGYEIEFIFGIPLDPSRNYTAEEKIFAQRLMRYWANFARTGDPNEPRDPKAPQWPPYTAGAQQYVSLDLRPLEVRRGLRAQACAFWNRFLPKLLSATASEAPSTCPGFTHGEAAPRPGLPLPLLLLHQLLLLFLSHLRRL
Method: as §1, §2

[1] = ABTS radical cation scavenging activity assay; conditions: for ABTS•+-scavenging activity, TEAC: Trolox equivalent antioxidant capacity, ratio of slopes compound/Trolox; for IC50: concentration for 50% reduction of ABTS radical cation
Method: Radical scavenging activity of the compounds was evaluated using the ABTS radical cation (2,2ʹ-azinobis-(3-ethylbenzothiazoline-6-sulfonic acid), ABTS^•+) decolorization assay ([Re et al., 1999]), with minor modifications described in detail in [Makhaeva et al. (2019a)]. To prepare the solution of ABTS^•+, equal volumes of aqueous solutions of 7 mM ABTS and 2.45 mM potassium persulfate were incubated for 12–16 h at room temperature in the dark. Radical scavenging capacity of the compounds was determined by mixing 10 μL of compound solution in DMSO with 240 μL of ABTS^•+ working solution in ethanol (100 μM final concentration). The reduction in ABTS^•+ absorbance was measured spectrophotometrically at 734 nm using a xMark UV/VIS microplate spectrophotometer (Bio-Rad, Hercules, CA, United States) for 1 h with an interval of 10 min compared to a standard synthetic antioxidant Trolox (6-hydroxy-2,5,7,8-tetramethylchroman-2-carboxylic acid). Ascorbic acid was used as a positive control.
The antioxidant activity of the compounds was reported as Trolox equivalent antioxidant capacity (TEAC values) as the ratio of the slopes of the concentration−response curves, test compound/Trolox. The IC50 values for the test compounds were also determined.

[2] = FRAP (ferric reducing antioxidant power) assay; conditions: Trolox equivalents; 1 h, 37°C, pH 3.6
Method: The ferric reducing antioxidant power (FRAP) assay proposed by [Benzie and Strain (1996)]; [Benzie and Strain (1999)] modified to be performed in 96-well microplates as described in detail in [Makhaeva et al. (2020)] was used. 10 μL (0.5 mM) of the tested or reference compounds were mixed with 240 µL of FRAP reagent (2.5 mL of 10 mM TPTZ (2,4,6-tris(2-pyridyl)-s-triazine) solution in 40 mM HCl, 2.5 mL of 20 mM FeCl3 in distilled water and 25 mL of 0.3 M acetate buffer pH 3.6); the absorbance of the mixture was measured spectrophotometrically (λ = 593 nm) with a FLUOStar OPTIMA microplate reader at 600 nm after a 1 h incubation at 37°C against a blank. Trolox was used as a reference compound. The results were expressed as Trolox equivalents (TE)—the ratio of the concentrations of Trolox and the test compound resulting in the same effect on ferric reducing activity.

BChE = biological target: T4, BChE (Equus caballus, UniProt P81908); assay: Kinetic studies of BChE inhibition (Lineweaver-Burk); assay type: biochemical, equine
T4 construct: Equine serum BChE, (%); purchased Sigma-Aldrich; host or cells: equine serum
T4 sequence (P81908 whole entry): as the sequence (P81908 whole entry) above
Method: Mechanism of BChE inhibition was assessed by a detailed analysis of enzyme kinetics with three increasing concentrations of inhibitor and six substrate concentrations as described in detail in [Makhaeva et al. (2017)].
Lineweaver-Burk plots-double reciprocal representations of Michaelis-Menten parameters-were used to assess the type of inhibition.

| Structure (SMILES) | Porcine liver CES, (%) inhibition (Porcine liver CES) | IC50 (Equine serum BChE) [µM] | inhibition at 100 µM (β-amyloid (1-42) (Aβ42)) [%] | inhibition at 20 µM (Human erythrocyte AChE) [%] | ABTS•+-scavenging activity, TEAC [1] | IC50 [1] [µM] | FRAP Fe3+-reducing activity, TE [2] [TE] | Inhibition of Aβ42 self-aggregation, (%) (β-amyloid (1-42) (Aβ42)) | inhibition at 20 µM (Equine serum BChE) [%] | further results |
| --- | --- | --- | --- | --- | --- | --- | --- | --- | --- | --- |
| O=[N+]([O-])c1ccc(OP(=O)(O)Oc2ccc([N+](=O)[O-])cc2)cc1 [BNPP, reference compound] | 99.1 ± 0.93 ^e % |  |  |  |  |  |  |  |  |  |
| O=P(Oc1ccccc1)(Oc1ccccc1)C1c2ccccc2Nc2ccccc21 [Compound 1c] | 21.6 ± 1.7% | 48 ± 3.1 | 19.8 ± 1.5 | 6.3 ± 0.9 | 1.13 ± 0.05 | 17.8 ± 1.1 | 1.13 ± 0.02 |  |  |  |
| COP(=O)(OC)c1c2ccccc2nc2ccccc12 [Compound 2a] | 4.3 ± 1.1% |  |  |  |  |  | 0.08 ± 0.02 | 4.9 ± 0.4% |  | Equine serum BChE, (%) inhibition (Equine serum BChE): 9.0 ± 1.4%; Human erythrocyte AChE, (%) inhibition (Human erythrocyte AChE): 9.1 ± 1.2% |
| COP(=O)(OC)C1c2ccccc2Nc2ccccc21 [Compound 1a] | n.а |  |  |  | 0.99 ± 0.04 | 21.3 ± 1.4 | 1.60 ± 0.01 | 4.9 ± 0.4% |  | Equine serum BChE, (%) inhibition (Equine serum BChE): 21.3 ± 1.7%; Human erythrocyte AChE, (%) inhibition (Human erythrocyte AChE): 5.3 ± 1.3% |
| CC[N+](C)(CC)CCC[n+]1c(-c2ccccc2)c2cc(N)ccc2c2ccc(N)cc21.[I-].[I-] [Propidium iodide, reference compound] |  |  |  |  |  |  |  | 90.7 ± 7.1% |  |  |
| O=P(CCc1ccc(Cl)cc1)(CCc1ccc(Cl)cc1)c1c2ccccc2nc2ccccc12 [Compound 2f] | 18.4 ± 1.4% |  | 11.2 ± 0.8 | 15.2 ± 1.3 |  |  |  |  | 20.4 ± 1.6 |  |
| O=C1O[C@H]([C@@H](O)CO)C(O)=C1O [Ascorbic acid, reference compound] |  |  |  |  | 0.97 ± 0.04 | 22.4 ± 2.2 | 1.23 ± 0.11 |  |  |  |
| O=P(CCc1ccc(Cl)cc1)(CCc1ccc(Cl)cc1)C1c2ccccc2Nc2ccccc21 [Compound 1f] |  | 21.7 ± 1.7 | 34.1 ± 2.7 | 6.4 ± 1 | 0.80 ± 0.03 | 22.6 ± 0.7 | 0.81 ± 0.02 |  |  | time to reach the maximum degree of ABTS•+ radical binding [1]: 30 min |
| CCOP(=O)(OCC)C1c2ccccc2Nc2ccccc21 [Compound 1b] | n.а |  | 8.1 ± 0.8 | 4.4 ± 1.1 | 0.97 ± 0.03 | 20.8 ± 1.3 | 1.15 ± 0.01 |  | 16.9 ± 1.5 |  |
| Cc1c(C)c2c(c(C)c1O)CCC(C)(C(=O)O)O2 (centres unmarked) [Trolox, 6-hydroxy-2,5,7,8-tetramethylchroman-2-carboxylic acid, reference compound] |  |  |  |  | 1.0 | 20.1 ± 0.7 | 1.0 |  |  |  |
| O=P(CCc1ccccc1)(CCc1ccccc1)c1c2ccccc2nc2ccccc12 [Compound 2e] | 13.5 ± 1.7% |  |  | 10.4 ± 1.3 |  |  |  | n.а | 25.7 ± 2 |  |
| O=P(Oc1ccccc1)(Oc1ccccc1)c1c2ccccc2nc2ccccc12 [Compound 2c] | 27.6 ± 2.2% |  | 3.6 ± 0.3 | 12.4 ± 1.4 |  |  |  |  | 32.7 ± 2.6 |  |
| O=P(OCc1ccccc1)(OCc1ccccc1)c1c2ccccc2nc2ccccc12 [Compound 2d] | 20.4 ± 1.8% | 6.9 ± 0.55 |  | 10.8 ± 1.5 |  |  |  | n.а |  | times less effective BChE inhibitor than the corresponding dihydroacridine (1d) (Equine serum BChE; ratio of BChE IC50 values): 2.4 |
| O=P(OCc1ccccc1)(OCc1ccccc1)C1c2ccccc2Nc2ccccc21 [Compound 1d, 9-bis(benzyloxy)phosphoryl-9,10-dihydroacridine] | 18.7 ± 1.4% | 2.9 ± 0.23 | 58.9 ± 4.7 | 7.6 ± 1.2 | 0.97 ± 0.04 | 20.8 ± 1.3 | 0.97 ± 0.06 |  |  | type of BChE inhibition (BChE; Lineweaver-Burk analysis): mixed type of inhibition; Ki (BChE; steady state inhibition, read-out: competitive component (Ki) of BChE inhibition): 2.22 ± 0.19 µM |
| O=P(CCc1ccccc1)(CCc1ccccc1)C1c2ccccc2Nc2ccccc21 [Compound 1e] | 22.2 ± 1.7% | 3.22 ± 0.25 | 46.9 ± 4.2 | 8.8 ± 2 | 0.9 ± 0.03 | 21.8 ± 0.9 | 1.10 ± 0.01 |  |  | time to reach the maximum degree of ABTS•+ radical binding [1]: 30 min |
| CCOP(=O)(OCC)c1c2ccccc2nc2ccccc12 [Compound 2b] | 10.5 ± 1.3% |  |  | 10.4 ± 1.2 |  |  | 0.07 ± 0.01 | n.а | 10.8 ± 1.5 |  |
